This passage reports EC50 results from patent US20160046592A1, “PHARMACEUTICAL COMPOSITION FOR THE TREATMENT OF DIABETES” (Ajinomoto Co., Inc., priority 2013, published 2016).

Structures can show the parent of a compound that is named as a salt.

This test has as its target T1, human GYS1 (glycogen synthase) (Homo sapiens, UniProt P13807).
T1 construct: made in house; host or cells: HEK293T
T1 sequence (P13807 1-737): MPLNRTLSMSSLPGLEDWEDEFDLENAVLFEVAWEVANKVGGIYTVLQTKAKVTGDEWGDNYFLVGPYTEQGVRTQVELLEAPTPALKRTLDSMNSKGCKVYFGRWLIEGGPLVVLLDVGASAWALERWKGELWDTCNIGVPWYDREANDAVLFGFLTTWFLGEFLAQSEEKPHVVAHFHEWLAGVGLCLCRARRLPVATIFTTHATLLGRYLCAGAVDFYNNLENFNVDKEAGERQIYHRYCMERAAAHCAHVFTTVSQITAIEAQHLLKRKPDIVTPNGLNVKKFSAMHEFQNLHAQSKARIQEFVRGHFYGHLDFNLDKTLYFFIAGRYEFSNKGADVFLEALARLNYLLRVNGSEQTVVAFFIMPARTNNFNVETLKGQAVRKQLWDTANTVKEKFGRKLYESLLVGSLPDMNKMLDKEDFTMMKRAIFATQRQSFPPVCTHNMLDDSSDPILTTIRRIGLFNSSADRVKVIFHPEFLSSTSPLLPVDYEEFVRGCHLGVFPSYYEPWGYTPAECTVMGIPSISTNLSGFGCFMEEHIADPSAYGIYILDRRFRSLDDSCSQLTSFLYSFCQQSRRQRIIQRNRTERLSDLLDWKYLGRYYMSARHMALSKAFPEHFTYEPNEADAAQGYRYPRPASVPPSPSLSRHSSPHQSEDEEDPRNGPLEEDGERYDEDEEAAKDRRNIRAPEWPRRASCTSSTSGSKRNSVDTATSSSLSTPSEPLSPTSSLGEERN
Kind of test: Measurement of glycogen synthase activity. The format is biochemical. To be noted: concentration causing 50% increase in relative activity; 100% = compound of Example 1 of WO/2011/058154 at 10 μM; 10 mM Glucose-6-phosphate; 37° C. for 25 minutes (Examples 1 to 61 and 67 to 82) or 20 minutes (Examples 62 to 66); absorbance at 340 nm. As to the method:
A human GYS1 expression plasmid (pCDNA3.1(+)-hGYS1) was constructed by the following method. By using a human skeletal muscle cDNA of Human MTC Panel I (Takara Bio Inc., 636742) as a template, a human GYS1 gene was amplified by a PCR method using cloning primers (Forward Primer: ATGCCTTTAAACCGCAC, Reverse Primer: TTAGTTACGCTCCTCGC). By using the amplified human GYS1 sequence as a template, restriction enzyme sequences were added by a PCR method using sub-cloning primers (Forward Primer: […], and Reverse Primer: […]), and then the human GYS1 gene was introduced between Xho I and Xba I sites of pCDNA3.1(+) (Invitrogen, V790-20).
Glycogen synthase was prepared by the following method. Human kidney-derived HEK293T cells were seeded in a dish (Thermo Fisher Scientific K.K., 168381) by using a 10% FBS-containing DMEM (Nacalai Tesque, Inc., 0845874) medium, and cultured overnight. Then, by using Lipofectamine LTX (Invitrogen, 15338-100), the cells were transfected with the human GYS1 expression vector according to the attached manual. After culturing under conditions of 37° C. and 5% CO2 for 2 days, the resultant was lysed in a lysis buffer (50 mM Tris-HCl (pH 8.0), 10 mM EDTA, 2 mM EGTA, 100 mM NaF, 1 mM PMSF, 1 mM DTT, and 1× Complete (Roche, 1873580)), homogenized, and then centrifuged at 16000×g at 4° C. for 15 minutes. The precipitated fraction re-dissolved by adding the lysis buffer was used as a glycogen synthase for evaluation.
The glycogen synthase activity was measured by the following method. To a polystyrene 96-well plate, solutions each containing 30 mM glycylglycine (pH 7.3), 40 mM KCl, 20 mM MgCl2, 9.2% DMSO containing one of the test compounds at one of various concentrations, and 10 mM Glucose-6-phosphate (Sigma-Aldrich, G7879) were added at 12 μL/well.
Next, a substrate solution containing 30 mM glycylglycine (pH 7.3), 4.3 mg/mL glycogen (Sigma-Aldrich, G8876), 21.6 mM UDP-glucose (Sigma-Aldrich, U4625), 21.6 mM phosphoenolpyruvic acid (Sigma-Aldrich, P0564), and 4.05 mM NADH (Sigma-Aldrich, N8129) was added at 18 μL/well.
Moreover, an enzyme solution containing 50 mM Tris-HCl (pH 8.0), 27 mM DTT (NACALAI TESQUE, INC., 14128-04), 0.2 mg/mL bovine serum albumin, 0.17 mg/mL glycogen synthase, and 1.5 μL pyruvate kinase/lactate dehydrogenase solution (Sigma-Aldrich, P0294) was added at 18 μL/well to prepare reaction solutions. After the reaction solutions were incubated (at 37° C. for 25 minutes for Examples 1 to 61 and 67 to 82 or at 37° C. for 20 minutes for Examples 62 to 66), the absorbance at 340 nm was measured by using Benchmark Plus (Bio-Rad Laboratories, Inc.).
The activity of each test compound was calculated by the following method. The absorbance at 340 nm of the reaction solution containing the compound and DMSO was subtracted from the absorbance at 340 nm of a reaction solution not containing the compound but containing only DMSO to calculate the change (ΔA340) in absorbance. The relative activity (%) of the test compound at each of the various concentrations was calculated, where the ΔA340 of a reaction solution containing the compound of Example 1 of WO/2011/058154 at a final concentration of 10 μM was taken as 100%. EC50 representing the concentration of the compound at which an increase in the relative activity by 50% was caused was calculated using XLfit (idbs).
In turn, `CN(C)C(=O)CN(CC(=O)O)C(=O)c1cccc(COc2ccc(-c3cc(F)c(F)c4ccoc34)cc2)c1` [Example 11, 2-[[3-[[4-(4,5-Difluorobenzofuran-7-yl)phenoxy]methyl]benzoyl]-[2-(dimethylamino)-2-oxo-ethyl]amino]acetic Acid] showed an EC50 of 10 nM. Compound `NC(=O)C1CC[C@@H](C(=O)O)N1C(=O)c1cccc(COc2ccc(-c3cc(F)c(F)c4ccoc34)cc2)c1` (single isomer, unassigned) [Example 76, (2S,5S) or (2S,5R)-5-Carbamoyl-1-[3-[[4-(4,5-difluorobenzofuran-7-yl)phenoxy]methyl]benzoyl]pyrrolidine-2-carboxylic Acid] registered an EC50 of 22 nM.

The compound `CSc1cc(F)c(F)cc1-c1ccc(OCc2cccc(C(=O)N(CCCS(C)(=O)=O)CC(=O)O)c2)cc1` [Example 32, 2-[[3-[[4-(4,5-Difluoro-2-methylsulfanyl-phenyl)phenoxy]methyl]benzoyl]-(3-methylsulfonylpropyl)amino]acetic Acid] registered an EC50 of 20 nM.

`N#CCCN(CC(=O)O)C(=O)c1cccc(COc2ccc(-c3cc(F)c(F)c4ccoc34)cc2)c1` [Example 75, 2-[2-Cyanoethyl-[3-[[4-(4,5-difluorobenzofuran-7-yl)phenoxy]methyl]benzoyl]amino]acetic Acid] had an EC50 of 22 nM. For `CSc1cc(F)c(F)cc1-c1ccc(OCc2cccc(C(=O)N(CCN3CCCC3)CC(=O)O)c2)cc1` [Example 40, 2-[[3-[[4-(4,5-Difluoro-2-methylsulfanyl-phenyl)phenoxy]methyl]benzoyl]-(2-pyrrolidin-1-ylethyl)amino]acetic Acid Trifluoroacetate], the EC50 turned out to be 24 nM. On to `O=C(O)[C@@H]1[C@@H](O)CCN1C(=O)c1cccc(COc2ccc(-c3cc(F)c(F)c4ccoc34)cc2)c1` [Example 2, (2S,3S)-1-[3-[[4-(4,5-Difluorobenzofuran-7-yl)phenoxy]methyl]benzoyl]-3-hydroxy-pyrrolidine-2-carboxylic Acid], for which the EC50 came to 4.3 nM.

Regarding `COCCCN(CC(=O)O)C(=O)c1cccc(COc2ccc(-c3cc(F)c(F)cc3SC)cc2)c1` [Example 30, 2-[[3-[[4-(4,5-Difluoro-2-methylsulfanyl-phenyl)phenoxy]methyl]benzoyl]-(3-methoxypropyl)amino]acetic Acid], the EC50 was 15 nM. `CN(C)CCN(CC(=O)O)C(=O)c1cccc(COc2ccc(-c3cc(F)c(F)c4ccoc34)cc2)c1` [Example 13, 2-[[3-[[4-(4,5-Difluorobenzofuran-7-yl)phenoxy]methyl]benzoyl]-(2-dimethylaminoethyl)amino]acetic Acid Trifluoroacetate] registered an EC50 of 15 nM. The value for `CO[C@H]1CCN(C(=O)c2cccc(COc3ccc(-c4cc(F)c(F)c5ccoc45)cc3)c2)[C@@H]1C(=O)O` [Example 78, (2S,3S)-1-[3-[[4-(4,5-Difluorobenzofuran-7-yl)phenoxy]methyl]benzoyl]-3-methoxy-pyrrolidine-2-carboxylic Acid] was 20 nM; that for `CSc1cc(F)c(F)cc1-c1ccc(OCc2cccc(C(=O)N(CC(=O)O)CC3CCN(C)CC3)c2)cc1` [Example 37, 2-[[3-[[4-(4,5-Difluoro-2-methylsulfanyl-phenyl)phenoxy]methyl]benzoyl]-[(1-methyl-4-piperidyl)methyl]amino]acetic Acid Trifluoroacetate] was 23 nM.

`CSc1cc(F)c(F)cc1-c1ccc(OCc2cccc(C(=O)N(CC(=O)O)Cc3ccon3)c2)cc1` [Example 66, 2-[[3-[[4-(4,5-Difluoro-2-methylsulfanyl-phenyl)phenoxy]methyl]benzoyl]-(isoxazol-3-ylmethyl)amino]acetic Acid] displayed an EC50 of 15 nM.

As for `CNC(=O)CN(CC(=O)O)C(=O)c1cccc(COc2ccc(-c3cc(F)c(F)c4ccoc34)cc2)c1` [Example 15, 2-[[3-[[4-(4,5-Difluorobenzofuran-7-yl)phenoxy]methyl]benzoyl]-[2-(methylamino)-2-oxo-ethyl]amino]acetic Acid], the EC50 was 13 nM. As for `COC[C@H]1CC[C@@H](C(=O)O)N1C(=O)c1cccc(COc2ccc(-c3cc(F)c(F)cc3SC)cc2)c1` [Example 65, (2S,5R)-1-[3-[[4-(4,5-Difluoro-2-methylsulfanyl-phenyl)phenoxy]methyl]benzoyl]-5-(methoxymethyl)pyrrolidine-2-carboxylic Acid], the EC50 is 18 nM. As for `CSc1cc(F)c(F)cc1-c1ccc(OCc2cccc(C(=O)N3C[C@H](C(N)=O)C[C@H]3C(=O)O)c2)cc1` [Example 61, (2S,4R)-4-Carbamoyl-1-[3-[[4-(4,5-difluoro-2-methylsulfanyl-phenyl)phenoxy]methyl]benzoyl]pyrrolidine-2-carboxylic Acid], the EC50 is 19 nM. `CSc1cc(F)c(F)cc1-c1ccc(OCc2cccc(C(=O)N(CC(=O)O)CC3CCOCC3)c2)cc1` [Example 34, 2-[[3-[[4-(4,5-Difluoro-2-methylsulfanyl-phenyl)phenoxy]methyl]benzoyl]-(tetrahydropyran-4-ylmethyl)amino]acetic Acid] returned an EC50 of 24 nM. Regarding `COCCN(CC(=O)O)C(=O)c1cccc(COc2ccc(-c3cc(F)c(F)cc3SC)cc2)c1` [Example 6, 2-[[3-[[4-(4,5-Difluoro-2-methylsulfanyl-phenyl)phenoxy]methyl]benzoyl]-(2-methoxyethyl)amino]acetic Acid], the EC50 turned out to be 17 nM. The value for `CSc1cc(F)c(F)cc1-c1ccc(OCc2cccc(C(=O)N(CCn3cncn3)CC(=O)O)c2)cc1` [Example 70, 2-[[3-[[4-(4,5-Difluoro-2-methylsulfanyl-phenyl)phenoxy]methyl]benzoyl]-[2-(1,2,4-triazol-1-yl)ethyl]amino]acetic Acid] was 21 nM; that for `CSc1cc(F)c(F)cc1-c1ccc(OCc2cccc(C(=O)N(CC(=O)O)C3CCNCC3)c2)cc1` [Example 36, 2-[[3-[[4-(4,5-Difluoro-2-methylsulfanyl-phenyl)phenoxy]methyl]benzoyl]-(4-piperidyl)amino]acetic Acid Trifluoroacetate] was 21 nM.

For `CNCCN(CC(=O)O)C(=O)c1cccc(COc2ccc(-c3cc(F)c(F)cc3SC)cc2)c1` [Example 28, 2-[[3-[[4-(4,5-Difluoro-2-methylsulfanyl-phenyl)phenoxy]methyl]benzoyl]-[2-(methylamino)ethyl]amino]acetic Acid Trifluoroacetate], the EC50 worked out at 10 nM.
